# Tests used:
# [1] = tested on: proinflammatory cytokines, such as tumor necrosis factor (TNF) and interleukin-1 (IL-1); settings: disclosed in PCT/US99/29165 and U.S. Pat. No. 6,319,921; cited from earlier work
# [2] = Discoloration on exposure to light or heat; type: physicochemical; settings: in the presence of light
# Source text: It has been discovered that BIRB 796 may lead to discoloration of a core tablet in which it is contained when that core tablet is exposed to light or heat. […] Tablet coatings preferably comprise 2-3%, more preferably about 2.5%, by weight of the BIRB 796 tablet. Masking of the color change may also be used to create a pharmaceutically acceptable dosage form, as for example, mixing dry colorants (including yellow no. 10 iron oxide lake) into the formulation.
# pKa of the drug = type: physicochemical
# Procedure: (§1) At least seven polymorphs of BIRB 796 have been isolated (the melt point of the drug is about 152° C. and the pKa about 6.1). The polymorphs generally exist in the form of elongated needles. BIRB 796 is relatively poorly soluble in physiological environments. The solubility of polymorphic BIRB 796 drug substance (Form IV) has been determined to be about 0.5 ug/ml at pH 7.4 and about 10 mg/ml at pH 2.0.
# [3] = Solubility of BIRB 796 drug substance; type: physicochemical; settings: for solubility: polymorphic drug substance (Form IV)
# Procedure: as §1
compound,measurement,setting,value
"Cc1ccc(-n2nc(C(C)(C)C)cc2NC(=O)Nc2ccc(OCCN3CCOCC3)c3ccccc23)cc1 [BIRB 796, 1-(5-tert-butyl-2-p-tolyl-2H-pyrazol-3-yl)-3-[4-(2-morpholin-4-yl-ethoxy)-naphthalen-1-yl]-urea]",inhibitory activity with respect to proinflammatory cytokines,[1],unexpectedly significant inhibitory activity
same,discoloration,[2],tendency to discolor in the presence of light
same,pKa,pKa of the drug,~6.1
same,solubility,"[3]; aqueous buffer, pH 7.4",~0.5 µg/mL
same,aqueous solubility,[3]; in words,poor aqueous solubility
same,solubility,"[3]; simulated gastric fluid, pH 2.0",~10000 µg/mL
